Data published in ChEMBL document CHEMBL2177022, “Novel acidic 11β-hydroxysteroid dehydrogenase type 1 (11β-HSD1) inhibitor with reduced acyl glucuronide liability: the discovery of 4-[4-(2-adamantylcarbamoyl)-5-tert-butyl-pyrazol-1-yl]benzoic acid (AZD8329)” (J Med Chem, 2012).
The source made the active and inactive calls. The calls are words filed in the database; no cut-off is given here.

Key:
Rattus norvegicus [1] = assay: Inhibition of 11betaHSD1 in lean Han Wistar rat adipose tissue assessed as reduction in assessed as [3H]cortisone to [3H]cortisol conversion at 10 mg/kg, po measured 3 hrs post dose; assay type: functional, organism-based; parameters: dose 10 mg/kg
Rattus norvegicus [2] = assay: Inhibition of 11betaHSD1 in lean Han Wistar rat liver assessed as reduction in assessed as [3H]cortisone to [3H]cortisol conversion at 3 mg/kg, po measured 3 hrs post dose; assay type: functional
[3] = target: T1, 11-beta-hydroxysteroid dehydrogenase 1 (Homo sapiens, UniProt P28845); assay: Inhibition of 11betaHSD1 in human adipocytes assessed as cortisone to cortisol conversion by scintillation counting method; assay type: cell-based
[4] = Inhibition of N-terminal 6-His tagged full length cynomolgus monkey 11betaHSD1 incubated for 25 mins by HTRF assay; parameters: species or system Macaca fascicularis
[5] = Inhibition of N-terminal 6-His tagged full length dog 11betaHSD1 incubated for 25 mins by HTRF assay; parameters: species or system Canis lupus familiaris
[6] = target: 11-beta-hydroxysteroid dehydrogenase 1 (Rattus norvegicus, UniProt P16232); assay: Inhibition of N-terminal 6-His tagged full length rat 11betaHSD1 incubated for 25 mins by HTRF assay
[7] = target: 11-beta-hydroxysteroid dehydrogenase 1 (Mus musculus, UniProt P50172); assay: Inhibition of N-terminal 6-His tagged full length mouse 11betaHSD1 incubated for 25 mins by HTRF assay
Cavia porcellus = assay: Toxicity in anesthetized guinea pig monophasic action potential model assessed as ventricular repolarization; assay type: organism-based, Cardiac ventricle; conditions: in vivo
L5178Y = assay: Genotoxicity in mouse L5178Y cells; assay type: toxicity, cell-based
[8] = target: Mineralocorticoid receptor (Homo sapiens) (UniProt P08235); assay: Inhibition of mineralocorticoid receptor
Salmonella typhimurium = assay: Genotoxicity in Salmonella typhimurium by Ames test; assay type: toxicity, organism-based; conditions: salmonella enterica subsp. enterica serovar typhimurium
[9] = target: Glucocorticoid receptor (Homo sapiens) (UniProt P04150); assay: Inhibition of glucocorticoid receptor
[10] = target: 17-beta-hydroxysteroid dehydrogenase type 3 (Homo sapiens) (UniProt P37058); assay: Inhibition of 17beta-HSD3 assessed as conversion of androstenedione to testosterone at 10 uM by scintillation counting method
[11] = target: 17-beta-hydroxysteroid dehydrogenase type 1 (Homo sapiens, UniProt P14061); assay: Inhibition of 17beta-HSD1 assessed as conversion of estrone to estradiol by scintillation counting method
[12] = target: 11-beta-hydroxysteroid dehydrogenase type 2 (Homo sapiens, UniProt P80365); assay: Inhibition of 11beta-HSD2 assessed as conversion of cortisol to cortisone by fluorescence based assay
[13] = Drug metabolism in bile duct cannulated rat urine assessed as oxidative metabolism level during 0 to 6 hrs post dose by metabolism-ID study; assay type: ADME, tissue-based; conditions: in vivo
[14] = Drug metabolism in bile duct cannulated rat bile assessed as oxidative metabolism level during 0 to 6 hrs post dose by metabolism-ID study; assay type: ADME; conditions: in vivo
[15] = Stability in bile duct cannulated rat urine assessed as parent compound remaining measured during 0 to 6 hrs post dose; assay type: ADME, tissue-based; conditions: in vivo
[16] = Stability in bile duct cannulated rat bile assessed as parent compound remaining measured during 0 to 6 hrs post dose; assay type: ADME; conditions: in vivo
[17] = Drug metabolism in dog hepatocytes assessed as oxidative metabolism level by metabolism-ID study; assay type: ADME, cell-based, Canis lupus familiaris, Hepatocyte
Hepatocyte [18] = assay: Stability in rat hepatocytes assessed as parent compound remaining; assay type: ADME, cell-based
[19] = Stability in dog hepatocytes assessed as parent compound remaining; assay type: ADME, cell-based, Canis lupus familiaris, Hepatocyte
Hepatocyte [20] = assay: Stability in human hepatocytes assessed as parent compound remaining; assay type: ADME, cell-based
Liver microsomes = assay: Stability in human liver microsomes assessed as oxidative metabolism-mediated generation of reactive metabolites; assay type: ADME, Microsome
Rattus norvegicus [21] = assay: Renal clearance in rat at 1 and 3 mg/kg relative to total clearance; assay type: ADME, organism-based, Kidney; parameters: dose 3 mg/kg; conditions: in vivo
Canis familiaris = assay: Renal clearance in dog at 1 and 3 mg/kg relative to total clearance; assay type: ADME, organism-based, Canis lupus familiaris, Kidney; parameters: dose 3 mg/kg; conditions: in vivo
[22] = Oral bioavailability in rat at 1 and 3 mg/kg; assay type: ADME, organism-based; conditions: in vivo
[23] = Oral bioavailability in dog at 1 and 3 mg/kg; assay type: ADME, organism-based, Canis lupus familiaris; conditions: in vivo
[24] = Oral bioavailability in mouse at 1 and 3 mg/kg; assay type: ADME, organism-based; conditions: in vivo
[25] = Half life in mouse at 1 and 3 mg/kg, po; assay type: ADME, organism-based; parameters: dose 3 mg/kg, route oral; conditions: in vivo
[26] = Half life in rat at 1 and 3 mg/kg, po; assay type: ADME, organism-based; parameters: dose 3 mg/kg, route oral; conditions: in vivo
[27] = Half life in dog at 1 and 3 mg/kg, po; assay type: ADME, organism-based, Canis lupus familiaris; parameters: dose 3 mg/kg, route oral; conditions: in vivo
[28] = Half life in rat at 1 and 3 mg/kg, iv; assay type: ADME, organism-based; parameters: dose 3 mg/kg, route intravenous; conditions: in vivo
[29] = Half life in dog at 1 and 3 mg/kg, iv; assay type: ADME, organism-based, Canis lupus familiaris; parameters: dose 3 mg/kg, route intravenous; conditions: in vivo
[30] = Volume of distribution at steady state in dog at 1 and 3 mg/kg; assay type: ADME, organism-based, Canis lupus familiaris; parameters: dose 3 mg/kg; conditions: in vivo, read-out: Vdss
[31] = Half life in mouse at 1 and 3 mg/kg, iv; assay type: ADME, organism-based; parameters: dose 3 mg/kg, route intravenous; conditions: in vivo
[32] = Volume of distribution at steady state in rat at 1 and 3 mg/kg; assay type: ADME, organism-based; parameters: dose 3 mg/kg; conditions: in vivo, read-out: Vdss
[33] = Volume of distribution at steady state in mouse at 1 and 3 mg/kg; assay type: ADME, organism-based; parameters: dose 3 mg/kg; conditions: in vivo, read-out: Vdss
[34] = Plasma clearance in dog at 1 and 3 mg/kg; assay type: ADME, organism-based, Canis lupus familiaris; parameters: dose 3 mg/kg
[35] = Plasma clearance in mouse at 1 and 3 mg/kg; assay type: ADME, organism-based; parameters: dose 3 mg/kg
[36] = Plasma clearance in rat at 1 and 3 mg/kg; assay type: ADME, organism-based; parameters: dose 3 mg/kg
[37] = Apparent permeability from basolateral to apical side in MDCK cells at 10 uM; assay type: ADME, cell-based, Canis lupus familiaris; conditions: dog
[38] = Percentage unbound in human plasma at 37 degC by equilibrium dialysis method; assay type: ADME, cell-free
[39] = Apparent permeability from apical to basolateral side in MDCK cells at 10 uM; assay type: ADME, cell-based, Canis lupus familiaris; conditions: dog
[40] = Percentage unbound in mouse plasma at 37 degC by equilibrium dialysis method; assay type: ADME, cell-free
[41] = Percentage unbound in dog plasma at 37 degC by equilibrium dialysis method; assay type: ADME, cell-free, Canis lupus familiaris
CYP2C9 = CYP2C9 (Homo sapiens, UniProt P11712); assay: Inhibition of CYP2C9 at 10 uM; assay type: ADME
CYP2C19 = CYP2C19 (Homo sapiens, UniProt P33261); assay: Inhibition of CYP2C19 at 10 uM; assay type: ADME
CYP2D6 = CYP2D6 (Homo sapiens, UniProt P10635); assay: Inhibition of CYP2D6 at 10 uM; assay type: ADME
CYP1A2 = CYP1A2 (Homo sapiens, UniProt P05177); assay: Inhibition of CYP1A2 at 10 uM; assay type: ADME
[42] = Oral bioavailability in rat; assay type: ADME, organism-based; conditions: in vivo
CYP3A4 = CYP3A4 (Homo sapiens, UniProt P08684); assay: Inhibition of CYP3A4 at 10 uM; assay type: ADME
[43] = Aqueous solubility in pH 7.4 phosphate buffer at 25 degC incubated for 24 hrs; assay type: physicochemical
[44] = Intrinsic clearance in rat hepatocytes assessed per 10^6 cells
[45] = Percentage unbound in rat plasma at 37 degC by equilibrium dialysis method; assay type: ADME, cell-free
[46] = Lipophilicity, log D at pH 7.4 by shake flask method; conditions: buffer
[47] = target: T1, 11-beta-hydroxysteroid dehydrogenase 1
Description: Inhibition of N-terminal 6-His tagged full length human 11betaHSD1 incubated for 25 mins by HTRF assay

in vivo = conditions: rat

T1 sequence (P28845 whole entry): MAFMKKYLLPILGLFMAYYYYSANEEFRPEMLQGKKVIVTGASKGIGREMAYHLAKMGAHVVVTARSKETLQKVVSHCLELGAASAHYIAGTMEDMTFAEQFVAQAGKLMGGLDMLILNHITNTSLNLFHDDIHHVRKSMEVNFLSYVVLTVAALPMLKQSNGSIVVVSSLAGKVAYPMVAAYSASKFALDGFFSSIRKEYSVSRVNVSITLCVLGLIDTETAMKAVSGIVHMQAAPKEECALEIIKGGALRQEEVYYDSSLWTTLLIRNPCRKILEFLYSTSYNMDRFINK
Sequence of CYP2C19 (P33261 whole entry): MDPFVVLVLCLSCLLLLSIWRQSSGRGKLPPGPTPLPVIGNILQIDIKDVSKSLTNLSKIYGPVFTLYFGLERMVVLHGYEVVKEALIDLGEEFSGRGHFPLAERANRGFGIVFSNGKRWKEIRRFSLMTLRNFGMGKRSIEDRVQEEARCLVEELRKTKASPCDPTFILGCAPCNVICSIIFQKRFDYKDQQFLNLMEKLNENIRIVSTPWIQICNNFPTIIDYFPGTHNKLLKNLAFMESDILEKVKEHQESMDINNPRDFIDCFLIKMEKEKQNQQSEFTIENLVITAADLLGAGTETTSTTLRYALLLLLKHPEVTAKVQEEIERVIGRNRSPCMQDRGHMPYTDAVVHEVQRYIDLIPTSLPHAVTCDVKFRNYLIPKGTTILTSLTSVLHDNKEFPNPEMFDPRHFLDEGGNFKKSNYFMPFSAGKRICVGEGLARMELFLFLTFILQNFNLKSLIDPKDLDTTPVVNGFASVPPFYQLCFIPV
Sequence of 11-beta-hydroxysteroid dehydrogenase type 2 (P80365 whole entry): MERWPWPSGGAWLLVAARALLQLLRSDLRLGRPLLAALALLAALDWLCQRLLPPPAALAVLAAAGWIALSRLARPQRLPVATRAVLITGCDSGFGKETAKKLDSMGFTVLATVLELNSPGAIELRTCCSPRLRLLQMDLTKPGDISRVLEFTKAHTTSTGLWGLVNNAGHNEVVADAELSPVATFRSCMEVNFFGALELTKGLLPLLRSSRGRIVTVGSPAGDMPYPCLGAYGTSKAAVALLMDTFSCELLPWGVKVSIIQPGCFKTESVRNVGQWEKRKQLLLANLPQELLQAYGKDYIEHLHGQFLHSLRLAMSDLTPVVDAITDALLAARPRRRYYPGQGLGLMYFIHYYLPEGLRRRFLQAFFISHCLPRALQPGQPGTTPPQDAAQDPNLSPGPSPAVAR
Sequence of CYP2C9 (P11712 whole entry): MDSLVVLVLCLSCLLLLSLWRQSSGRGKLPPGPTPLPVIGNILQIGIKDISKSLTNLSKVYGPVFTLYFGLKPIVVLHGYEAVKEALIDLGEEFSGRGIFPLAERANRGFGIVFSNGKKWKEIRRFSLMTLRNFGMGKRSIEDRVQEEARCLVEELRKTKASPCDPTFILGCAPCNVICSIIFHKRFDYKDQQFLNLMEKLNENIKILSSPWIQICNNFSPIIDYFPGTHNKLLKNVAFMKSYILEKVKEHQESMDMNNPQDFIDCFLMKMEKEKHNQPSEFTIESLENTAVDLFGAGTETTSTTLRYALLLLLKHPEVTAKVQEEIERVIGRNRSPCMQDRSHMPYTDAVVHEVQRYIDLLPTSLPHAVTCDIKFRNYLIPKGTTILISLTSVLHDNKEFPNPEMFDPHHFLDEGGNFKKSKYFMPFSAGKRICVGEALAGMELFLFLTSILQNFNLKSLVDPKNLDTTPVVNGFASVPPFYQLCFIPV
Sequence of Mineralocorticoid receptor (Homo sapiens) (P08235 whole entry): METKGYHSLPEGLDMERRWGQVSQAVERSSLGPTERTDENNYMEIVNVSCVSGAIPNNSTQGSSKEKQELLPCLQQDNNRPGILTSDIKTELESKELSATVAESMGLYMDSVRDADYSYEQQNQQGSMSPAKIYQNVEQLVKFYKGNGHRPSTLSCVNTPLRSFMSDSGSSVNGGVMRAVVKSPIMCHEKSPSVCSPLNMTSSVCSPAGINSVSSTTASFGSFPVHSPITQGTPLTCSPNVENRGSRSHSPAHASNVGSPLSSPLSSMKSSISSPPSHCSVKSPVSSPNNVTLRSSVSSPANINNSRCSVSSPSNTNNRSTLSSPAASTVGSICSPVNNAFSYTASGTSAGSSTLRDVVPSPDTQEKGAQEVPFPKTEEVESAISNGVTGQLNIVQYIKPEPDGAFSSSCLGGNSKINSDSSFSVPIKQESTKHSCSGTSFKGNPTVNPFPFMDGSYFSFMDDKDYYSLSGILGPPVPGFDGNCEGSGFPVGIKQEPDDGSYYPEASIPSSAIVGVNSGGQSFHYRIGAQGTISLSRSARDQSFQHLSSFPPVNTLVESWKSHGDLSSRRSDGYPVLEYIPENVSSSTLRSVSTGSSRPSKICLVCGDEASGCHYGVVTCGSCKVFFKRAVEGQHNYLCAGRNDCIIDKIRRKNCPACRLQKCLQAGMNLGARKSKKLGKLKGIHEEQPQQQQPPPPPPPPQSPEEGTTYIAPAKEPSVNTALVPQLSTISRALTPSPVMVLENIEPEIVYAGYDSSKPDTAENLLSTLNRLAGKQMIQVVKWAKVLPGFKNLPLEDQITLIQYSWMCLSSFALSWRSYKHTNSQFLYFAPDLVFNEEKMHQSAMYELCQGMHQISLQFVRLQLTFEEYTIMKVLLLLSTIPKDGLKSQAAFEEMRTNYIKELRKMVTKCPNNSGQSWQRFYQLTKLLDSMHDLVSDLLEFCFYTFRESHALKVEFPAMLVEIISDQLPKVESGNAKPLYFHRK
Sequence of 11-beta-hydroxysteroid dehydrogenase 1 (Mus musculus, UniProt P50172) (P50172 whole entry): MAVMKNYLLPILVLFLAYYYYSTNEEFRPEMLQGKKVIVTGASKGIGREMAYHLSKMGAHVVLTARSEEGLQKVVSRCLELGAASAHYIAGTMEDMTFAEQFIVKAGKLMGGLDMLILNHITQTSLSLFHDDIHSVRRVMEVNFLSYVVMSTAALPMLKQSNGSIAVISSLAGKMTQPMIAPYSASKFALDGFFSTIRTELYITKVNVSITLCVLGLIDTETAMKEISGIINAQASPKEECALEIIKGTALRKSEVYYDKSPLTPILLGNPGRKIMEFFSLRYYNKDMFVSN
Sequence of Glucocorticoid receptor (Homo sapiens) (P04150 whole entry): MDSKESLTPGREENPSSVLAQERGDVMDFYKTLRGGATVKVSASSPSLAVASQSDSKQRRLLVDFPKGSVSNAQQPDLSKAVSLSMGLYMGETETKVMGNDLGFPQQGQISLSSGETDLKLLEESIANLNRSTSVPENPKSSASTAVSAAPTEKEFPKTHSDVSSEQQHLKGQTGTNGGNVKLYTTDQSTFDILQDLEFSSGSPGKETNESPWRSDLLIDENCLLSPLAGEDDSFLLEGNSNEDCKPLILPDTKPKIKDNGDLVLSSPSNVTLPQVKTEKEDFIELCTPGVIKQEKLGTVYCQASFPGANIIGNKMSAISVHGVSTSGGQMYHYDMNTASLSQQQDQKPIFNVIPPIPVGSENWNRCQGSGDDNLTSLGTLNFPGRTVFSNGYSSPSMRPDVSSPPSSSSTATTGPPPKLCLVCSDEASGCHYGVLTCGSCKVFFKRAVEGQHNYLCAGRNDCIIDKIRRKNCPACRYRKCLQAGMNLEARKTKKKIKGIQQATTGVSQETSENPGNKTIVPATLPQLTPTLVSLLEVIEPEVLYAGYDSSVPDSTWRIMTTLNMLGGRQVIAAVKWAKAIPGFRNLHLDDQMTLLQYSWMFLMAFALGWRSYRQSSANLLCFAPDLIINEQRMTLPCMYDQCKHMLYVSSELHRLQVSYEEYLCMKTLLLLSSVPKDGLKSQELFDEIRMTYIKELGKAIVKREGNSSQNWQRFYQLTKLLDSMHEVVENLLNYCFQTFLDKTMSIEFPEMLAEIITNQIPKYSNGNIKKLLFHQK
Sequence of 11-beta-hydroxysteroid dehydrogenase 1 (Rattus norvegicus, UniProt P16232) (P16232 whole entry): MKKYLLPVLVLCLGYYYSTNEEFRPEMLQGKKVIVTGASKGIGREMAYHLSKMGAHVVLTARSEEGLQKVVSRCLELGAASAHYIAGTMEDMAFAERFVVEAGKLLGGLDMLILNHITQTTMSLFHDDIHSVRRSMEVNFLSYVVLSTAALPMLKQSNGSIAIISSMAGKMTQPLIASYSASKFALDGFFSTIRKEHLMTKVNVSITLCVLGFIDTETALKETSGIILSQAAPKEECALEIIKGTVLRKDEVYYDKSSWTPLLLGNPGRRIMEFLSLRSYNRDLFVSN
Sequence of 17-beta-hydroxysteroid dehydrogenase type 1 (P14061 whole entry): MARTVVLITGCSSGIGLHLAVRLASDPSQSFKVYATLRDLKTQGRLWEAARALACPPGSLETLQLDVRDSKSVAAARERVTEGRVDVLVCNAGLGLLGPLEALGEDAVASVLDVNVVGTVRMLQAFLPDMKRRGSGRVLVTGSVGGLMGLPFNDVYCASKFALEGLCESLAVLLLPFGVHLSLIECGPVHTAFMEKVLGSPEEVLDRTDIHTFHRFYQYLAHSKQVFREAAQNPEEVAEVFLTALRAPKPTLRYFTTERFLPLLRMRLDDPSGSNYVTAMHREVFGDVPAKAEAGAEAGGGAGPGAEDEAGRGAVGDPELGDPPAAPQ
Sequence of CYP2D6 (P10635 whole entry): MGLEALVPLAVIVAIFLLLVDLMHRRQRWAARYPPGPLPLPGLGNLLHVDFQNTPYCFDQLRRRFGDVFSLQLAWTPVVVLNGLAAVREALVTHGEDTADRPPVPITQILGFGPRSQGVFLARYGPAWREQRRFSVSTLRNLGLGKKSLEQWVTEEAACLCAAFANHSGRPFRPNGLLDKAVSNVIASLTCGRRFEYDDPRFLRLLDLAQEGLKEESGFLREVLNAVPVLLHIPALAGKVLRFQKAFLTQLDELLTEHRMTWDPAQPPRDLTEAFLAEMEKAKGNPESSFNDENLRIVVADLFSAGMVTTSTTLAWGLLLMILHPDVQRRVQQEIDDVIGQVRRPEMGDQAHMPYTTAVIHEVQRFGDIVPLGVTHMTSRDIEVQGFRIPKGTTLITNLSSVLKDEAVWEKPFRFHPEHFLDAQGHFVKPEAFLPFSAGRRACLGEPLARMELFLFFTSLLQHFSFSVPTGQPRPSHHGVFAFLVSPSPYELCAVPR

IC50 [3]: 2 nM
IC50 [4]: 24 nM
IC50 [5]: 8 nM
IC50 [6]: 86 nM
IC50 [7]: 6100 nM
inhibition [8]: inactive
inhibition [9]: inactive
inhibition [10]: < 5%
IC50 [11]: > 30000 nM
IC50 [12]: > 30000 nM
Drug metabolism [13]: 0.2%
Drug metabolism [14]: 80.1%
Stability [15]: 99.4%
Stability [16]: 10.8%
Drug metabolism [17]: 5.8%
Stability (Hepatocyte [18]): 96%
Stability [19]: 93.7%
Stability (Hepatocyte [20]): 95%
Stability (Liver microsomes): Stable
CL (Rattus norvegicus [21]): < 1%
CL (Canis familiaris): < 5%
bioavailability [22]: 95%
bioavailability [23]: 45%
bioavailability [24]: 100%
half-life [25]: 2.2 h
half-life [26]: 4.9 h
half-life [27]: 5.1 h
half-life [28]: 5.8 h
half-life [29]: 5.5 h
Vd [30]: 0.1 L/kg
half-life [31]: 0.8 h
Vd [32]: 0.3 L/kg
Vd [33]: 0.4 L/kg
clearance [34]: 0.3 mL/min/kg
clearance [35]: 9 mL/min/kg
clearance [36]: 0.6 mL/min/kg
Papp B→A at 10 µM [37]: 3.9 ×10⁻⁶ cm/s
fraction unbound [38]: 0.014
Papp A→B at 10 µM [39]: 7.3 ×10⁻⁶ cm/s
fraction unbound [40]: 0.035
fraction unbound [41]: 0.02
inhibition at 10 µM (CYP2C9): < 25%
inhibition at 10 µM (CYP2C19): < 25%
inhibition at 10 µM (CYP2D6): < 25%
inhibition at 10 µM (CYP1A2): < 25%
bioavailability [42]: 95%
inhibition at 10 µM (CYP3A4): < 25%
solubility at 24 h [43]: > 1900 µM
hepatocyte CLint [44]: < 2 µL/min/1e6 cells
fraction unbound [45]: 0.013
logD [46]: 1
IC50 [47]: 9 nM
clearance (in vivo): 0.6 mL/min/kg
SMILES: CC(C)(C)c1c(C(=O)NC2C3CC4CC(C3)CC2C4)cnn1-c1ccc(C(=O)O)cc1 (stereo not drawn)
inhibition (Rattus norvegicus [1]): Active
inhibition in vivo at 3 mg/kg (Rattus norvegicus [2]): 50%
Activity (Cavia porcellus): Non-toxic
Activity (L5178Y): Non-toxic
Activity (Salmonella typhimurium): Non-toxic
